The record followed here is patent US5563158A, “Aromatic compounds containing basic and acidic termini useful as fibrinogen receptor antagonists” (The Dupont Merck Pharmaceutical Company, priority 1994, dated 1996).

For the test, the system named is platelet-rich plasma (PRP) platelets. The test can be described thus: Platelet aggregation assay (agonist-induced aggregation in human platelet-rich plasma, aggregometer). Type of test: cell-based. Particulars: inhibition of agonist-induced platelet aggregation, test compounds added prior to activation of the platelets. How it is done:
Platelet Aggregation Assay:
Venous blood was obtained from the arm of a healthy human donor who was drug-free and aspirin-free for at least two weeks prior to blood collection. Blood was collected into 10 mL citrated Vacutainer tubes. The blood was centrifuged for 15 minutes at 150×g at room temperature, and platelet-rich plasma (PRP) was removed. The remaining blood was centrifuged for 15 minutes at 1500×g at room temperature, and platelet-poor plasma (PPP) was removed. Samples were assayed on a aggregometer (PAP-4 Platelet Aggregation Profiler), using PPP as the blank (100% transmittance). 200 μL of PRP was added to each micro test tube, and transmittance was set to 0%. 20 μL of various agonists (ADP, collagen, arachidonate, epinephrine, thrombin) were added to each tube, and the aggregation profiles were plotted (% transmittance versus time). The results are expressed as % inhibition of agonist-induced platelet aggregation. For the IC50 evaluation, the test compounds were added at various concentrations prior to the activation of the platelets.

Structures can show the parent of a compound that is named as a salt. Bounds are passed on as bounds.

As a reminder, the IC50 is the midpoint of a concentration-inhibition curve. Low readings indicate greater potency, high ones weaker potency. Turning to `CC(CC(=O)O)NC(=O)c1cccc(COc2ccc(C(=N)N)cc2)c1` (racemic) [Example 85, N-(3-(4-Amidinophenyloxymethyl)benzoyl)-DL-3-aminobutyric acid TFA salt], the IC50 was less than 10 µM.
Compound `CC(CC(=O)O)NC(=O)c1cccc(OCc2ccc(C(=N)N)cc2)c1` (racemic) [Example 91, N-(3-(4-amidinobenzyloxy)benzoyl)-DL-3-aminobutyric acid TFA salt] registered an IC50 of less than 10 µM.
In turn, `N=C(N)c1ccc(COc2cccc(C(=O)NC(CC(=O)O)C(F)(F)F)c2)cc1` (racemic) [Example 92, N-(3-(4-amidinobenzyloxy)benzoyl)-DL-3-amino-4,4,4-trifluorobutyric acid TFA salt] gave a concentration for half-maximal inhibition (IC50) of 51 to 100 µM.
The result for `CCCCOC(=O)N[C@@H](CNC(=O)c1cccc(COc2ccc(C(=N)N)cc2)c1)C(=O)OC` [Example 3a, Methyl N-^2-1-butyloxycarbonyl-N^3-(3-(4-amidinophenyloxymethyl)benzoyl)-L-2,3-diaminopropionate TFA salt] reads less than 10 µM; that for `COC(=O)[C@H](CNC(=O)c1cccc(COc2ccc(C(=N)N)cc2)c1)NC(=O)CCc1ccccc1` [Example 6a, Methyl N^2-(3-phenylpropionyl)-N^3-(3-(4-amidinophenyloxymethyl)benzoyl)-L-2,3-diaminopropionate TFA salt], less than 10 µM.
The result for `CCCCS(=O)(=O)N[C@@H](CNC(=O)c1cccc(COc2ccc(C(=N)N)cc2)c1)C(=O)O` [Example 14, N^2-1-butanesulfonyl-N^3-(3-(4-amidinophenyloxymethyl)benzoyl)-2,3-diaminopropionic acid TFA salt] reads less than 10 µM.
Take `Cc1ccc(S(=O)(=O)N[C@@H](CNC(=O)c2cccc(COc3ccc(C(=N)N)cc3)c2)C(=O)O)cc1` [Example 16, N^2-p-toluenesulfonyl-N^3-(3-(4-amidinophenyloxymethyl)benzoyl)-L-2,3-diaminopropionic acid TFA salt]: the IC50 is less than 10 µM.
The result for `COC(=O)[C@H](CNC(=O)c1cccc(COc2ccc(C(=N)N)cc2)c1)NS(=O)(=O)c1ccc(C)cc1` [Example 16a, Methyl N^2-p-toluenesulfonyl-N^3-(3-(4-amidinophenyloxymethyl)benzoyl)-L-2,3-diaminopropionate TFA salt] reads 10 to 50 µM.
Under `COC(=O)[C@H](CNC(=O)c1cccc(COc2ccc(C(=N)N)cc2)c1)NC(=O)c1ccccn1` [Example 18a] stands less than 10 µM; under `COC(=O)[C@H](CNC(=O)c1cccc(COc2ccc(C(=N)N)cc2)c1)NC(=O)c1cccnc1` [Example 19a, Methyl-N^2-nicotinoyl-N^3-[3-(4-amidinophenyloxymethyl)benzoyl]-L-2,3-diaminopropionate, TFA salt], less than 10 µM; under `COC(=O)[C@H](CNC(=O)c1cccc(COc2ccc(C(=N)N)cc2)c1)NC(=O)c1ccncc1` [Example 20a], less than 10 µM.
Compound `N=C(N)c1ccc(OCc2cccc(C(=O)NCCC(=O)O)c2)cc1` [Example 27, N-(3-(4-amidinophenyloxymethyl)benzoyl)-3-aminopropionic acid TFA salt] came in with an IC50 of less than 10 µM.
The result for `N=C(N)c1ccc(OCc2cccc(C(=O)NC[C@H](NC(=O)OCc3ccccc3)C(=O)O)c2)cc1` [Example 53, N^2 -Cbz-N^3-(3-(4-amidinophenyloxymethyl)benzoyl)-L-2,3-diaminopropionic acid TFA salt] reads less than 10 µM; that for `O=C(O)CCNC(=O)c1cccc(OCCCC2CCNCC2)c1` [Example 84a], less than 10 µM; that for `O=C(O)CCNC(=O)c1ccc(OCCCC2CCNCC2)cc1` [Example 84b, TFA salt], less than 10 µM.
Under `CCOC(=O)C(CNC(=O)c1cccc(COc2ccc(C(=N)N)cc2)c1)NC(=O)OCc1ccccc1` (stereo not shown) [Example 110] stands 10 to 50 µM; under `COC(=O)[C@H](CNC(=O)c1cccc(COc2ccc(C(=N)N)cc2)c1)NC(=O)Cc1cccnc1` [Example 119a, Methyl-N^2-3-pyridylacetoyl-N^3-[3-(4-amidinophenyloxymethyl)benzoyl]-L-2,3-diaminopropionate], less than 10 µM.
The result for `CCCCOC(=O)N[C@@H](CNC(=O)c1cc(OCc2ccc(C(=N)N)cc2)no1)C(=O)O` [Example 123, N^2-n-butyloxycarbonyl-N^3-[3-(4-amidinobenzyloxy)-5-isoxazolecarbonyl]-L-2,3-diaminopropionate TFA salt] reads less than 10 µM; that for `CCCCOC(=O)N[C@@H](CNC(=O)c1cc(OCc2ccc(C(=N)N)cc2)no1)C(=O)OC` [Example 142, Methyl N^2-n-butyloxycarbonyl-N^3-[3-(4-amidinobenzyloxy)-5 isoxazolecarbonyl]-L-2,3-diaminopropionate TFA salt], less than 10 µM.
`CCCCOC(=O)N[C@@H](CNC(=O)c1cc(OCC2CCN(C(=N)N)CC2)no1)C(=O)OC` [Example 479, Methyl N^2-n-butyloxycarbonyl-N-[3-(N-amidino-4-piperidinylmethoxy)-5-isoxazolecarbonyl]-L-2,3-diaminopropionate TFA salt] came in with a 50% inhibitory concentration (IC50) of less than 10 µM.
The result for `O=C(O)CC1CCCCN1C(=O)c1ccc(OCCCC2CCNCC2)cc1` (stereo not shown) [Example 480] reads 10 to 50 µM; that for `O=C(O)CC1CCCCCN1C(=O)c1ccc(OCCCC2CCNCC2)cc1` (stereo not shown) [Example 481], 10 to 50 µM.
Under `O=C(O)CC1CCCCN1C(=O)c1ccc(OCCC2CCNCC2)cc1` (stereo not shown) [Example 482] stands 51 to 100 µM; under `COC(=O)[C@H](CNC(=O)c1cccc(COc2ccc(C(=N)N)cc2)c1)NC(=O)Cc1ccccn1` [Example 500a], less than 10 µM.
The result for `COC(=O)[C@H](CNC(=O)c1cccc(COc2ccc(C(=N)N)cc2)c1)NC(=O)Cc1ccncc1` [Example 501a] reads less than 10 µM.
